Data from patent US12391946B2, “Use of a Janus kinase inhibitor and a telomerase inhibitor for the treatment of myeloproliferative neoplasms” (priority 2019, dated 2025).
Where two headings read alike, the source gives them in different places.

What was measured:
Assay type in all cases: cell-based, human
MF splenic CD34+ cells [1] = assay: In vitro treatment of MF splenic CD34+ cells with various doses of Rux; conditions: for IC50: Homo sapiens, concentration of Rux achieving 50% inhibition
Method: (§1) Treatment of MF and normal CD34^+ cells with doses of Rux and Imetelstat alone and in combination. […] For simultaneous combination treatment, CD34^+ cells were exposed to Rux and imetelstat for 3 days and were washed. Cells were then exposed to imetelstat again for additional 4 days or 11 days. For sequential combination treatment, CD34^+ cells were incubated in the presence of Rux alone for 3 days, followed by imetelstat alone for 7 or 14 days. For the three treatment strategies containing imetelstat, cells were dosed in total three times with imetelstat. Three days after Rux alone treatment and 7 or 14 days after each treatment with imetelstat, cells were enumerated and stained with CD34, a lineage cocktail, and CD15 mAbs and analyzed flow cytometrically. The absolute numbers of Lin^− CD34^+ (phenotypically defined HSC/HPC) and CD15^+CD34^− (myeloid) cells generated in the cultures were calculated by multiplying the total viable cell numbers by the percentage of CD34^+Lin^− and CD15^+CD34^− cells. In addition, parallel cultures to which MM or vehicle alone was added were performed.

MF splenic CD34+ cells [2] = assay: In vitro treatment of MF splenic CD34+ cells with Rux and imetelstat alone and in combination (flow cytometry, HPC assays); conditions: Rux alone 50 nM 3 days
Method: as §1, with “In addition, parallel cultures to which MM or vehicle alone was added were performed.” left out
HPC assays. A fraction of cells harvested from the above cultures were also analyzed in methylcellulose to which a cytokine cocktail was added according to the manufacturer's instructions (StemCell Technologies). […] Individual CFU-GM colonies (20-38 colonies/treatment group/patient) were plucked and analyzed for the presence of JAK2V617F using a nested allele-specific PCR. […]

CB CD34+ cells = assay: In vitro treatment of CB CD34+ cells with various doses of Rux; conditions: various doses of Rux (50-500 nM)
Method: as §1

## N#CC[C@H](C1CCCC1)n1cc(-c2ncnc3[nH]ccc23)cn1 [Rux, (3R)-3-Cyclopentyl-3-[4-(7H-pyrrolo[2,3-d]pyrimidin-4-yl)pyrazol-1-yl]propanenitrile]
MF splenic CD34+ cells [1]; CD34+ cell, read-out: 50% inhibition of MF CD34+ cell proliferation
  IC50: 0.15 µM
MF splenic CD34+ cells [1]; CFU-GM, MF CD34+ cells, read-out: 50% inhibition of CFU-GM formation
  IC50: 0.15 µM
MF splenic CD34+ cells [1]; various doses of Rux (50-500 nM)
  absolute number of MF splenic CD34+ cells: decreased in a dose dependent fashion
MF splenic CD34+ cells [2]; P=0.001
  number of mature myeloid cells generated in cultures of splenic MF CD34+ cells: reduced
MF splenic CD34+ cells [2]; P=9.69E-06
  numbers of assayable HPCs (CFU-GM+BFU-E+CFU-GEMM) generated in cultures of splenic MF CD34+ cells: reduced
CB CD34+ cells
  number of CB CD34+ cells: decreased only to a limited degree
